{"source": "patent US12201632B2", "about": "“Levoketoconazole for treatment of congenital adrenal hyperplasia and primary aldosteronism” (Strongbridge Dublin Limited, priority 2018, dated 2025)", "key": {"[1]": {"tested_on": "cortisol-producing adrenal adenoma cultures", "assay": "Cortisol production in primary cortisol-producing adrenal adenoma cultures", "format": "cell-based, human", "description": "(§1) To obtain primary cultures, adrenal specimens (adrenocortical adenomas, adrenal hyperplasias and adrenocortical carcinomas) were collected after adrenalectomy at the department of Surgery, Erasmus University Medical Center, Rotterdam, the Netherlands, between April 2016 and May 2018. The study was conducted under guidelines that have been approved by the Medical Ethics Committee of the Erasmus Medical Center and informed consent was obtained from all patients. Immediately after surgery, specimens were minced into small pieces of 2-3 mm^3, washed in culture medium and centrifuged for 5 minutes at 600 g. The tissue was stored overnight in culture medium at 4° C., where after the tissue was centrifuged again and the supernatant was removed. Fragments were dissociated using 10-25 ml collagenase type 1 (2 mg/ml: Sigma-Aldrich), followed by incubation at 37° C. for up to two hours. Ficoll (GE healthcare) density gradient separation was used once or twice as required in order to separate contaminating red blood cells from the tumor cells. Cell viability and cell amount were counted by trypan blue exclusion. Dissociated cells were plated at a density of 10^5 cells per well. ACTH-secreting corticotroph pituitary adenoma tissue from patients with Cushing's disease (n=2) was available after transsphenoidal surgery. Single-cell suspensions of the pituitary adenoma tissues were prepared as previously described in detail.\n(§2) Owing to a limited number of cells obtained from the specimens, not all experiments were carried out in every primary culture.\n(§3) Cortisol concentrations were measured in the supernatant using a chemiluminescence immunoassay system (Immulite 2000XPi; Siemens DPC Inc., Los Angeles, Calif., USA). In addition, we carried out multi-steroid analysis by liquid chromatography/mass spectrometry (LC/MS-MS) to accurately quantify androstenedione, corticosterone, cortisol, 11-deoxycortisol, DHEA, DHEAS, progesterone, 17-hydroxyprogesterone, and testosterone. Concentrations that were tested on the LC/MS-MS were closest to 50% inhibition or maximal inhibition of cortisol as determined by the immunoassay. Steroids were quantified with respect to a calibration series, with internal standards. Steroids were quantified on a Xevo TQS LC-MS/MS (Waters Chromatography).\n(§4) Statistical analysis was performed using Graphpad Prism 6.0 (Graphpad Software, San Diego, CA). Non-linear regression curve fitting program was used to calculate the half maximal inhibitory concentrations (IC50) on cortisol production. Effects of both compounds on the steroid profile were measured as absolute change compared to control and compared using the Student's t-test. When assessing differences between effects of both compounds, the percentage change was evaluated and compared in order to correct for differences in the vehicle treated control cells. Values of P<0.05 were considered statistically significant and data are presented as mean SEM."}, "[2]": {"tested_on": "primary human corticotroph pituitary adenoma cultures", "assay": "Cell amount in primary corticotroph pituitary adenoma cultures", "format": "cell-based", "settings": "corticotroph pituitary adenoma primary culture no. 2, 1 μM, 7 days", "description": "as §1, with “ACTH-secreting corticotroph pituitary adenoma tissue from patients with Cushing's disease (n=2) was available after transsphenoidal surgery. Single-cell suspensions of the pituitary adenoma tissues were prepared as previously described in detail.” left out\n(§5) As a measure of cell number, DNA concentrations were determined using the bisbenzimide fluorescent dye (Hoechst 33258, Sigma Aldrich), as previously described."}, "[3]": {"tested_on": "primary human corticotroph pituitary adenoma cultures", "assay": "ACTH secretion corrected for cell number in primary corticotroph pituitary adenoma cultures", "format": "cell-based", "settings": "both primary pituitary adenoma cultures, 1 μM, 7 days", "description": "as §1, with “Ficoll (GE healthcare) density gradient separation was used once or twice as required in order to separate contaminating red blood cells from the tumor cells.” left out, “Dissociated cells were plated at a density of 10^5 cells per well. ACTH-secreting corticotroph pituitary adenoma tissue from patients with Cushing's disease (n=2) was available after transsphenoidal surgery. Single-cell suspensions of the pituitary adenoma tissues were prepared as previously described in detail.” left out\nAt the end of the AtT20 and primary pituitary adenoma culture experiments, medium was collected and supplemented with 1% of the protease inhibitor Trasylol to prevent degradation of ACTH. ACTH was measured using a commercially available, nonisotopic automatic chemiluminescence system (DPC Immulite)."}, "AtT20 cells": {"tested_on": "AtT20 cells", "assay": "Cell number of corticotroph pituitary AtT20 cells", "format": "cell-based, mouse", "settings": "for IC50: AtT20, after 7 days, read-out: IC50 inhibition of cell number", "description": "Human adrenocortical carcinoma HAC15 and mouse corticotroph AtT20 cells were used, purchased as a kind gift by Dr. W. Rainey, and obtained from Dr. J. Tooze (European Organization for Molecular Biology), respectively. Both cell lines were cultured in 75 cm^2 flasks at 37° C. in a humidified incubator (Greiner Bio-One, Alphen a/d Rijn, the Netherlands) at 5% CO2. Dulbecco's Modified Eagle Medium F12 containing 5% fetal calf serum was used for HAC15, whereas AtT20 cells were cultured in Dulbecco's minimal essential medium (DMEM) supplemented with 10% fetal calf serum. Both mediums were supplemented with L-glutamine (2 mmol/L) and penicillin (10^5 U/L). Short tandem repeat (str) profiling using a Powerplex Kit (Promega, Leiden, the Netherlands) of HAC15 and AtT20 gave results consistent with the ATCC database, confirming the identity of both cell lines. Medium and supplements were obtained from Invitrogen, Breda, the Netherlands. Once a week, cells were harvested with trypsin (0.05%)-EDTA (0.53 mM) and resuspended in culture medium. Levoketoconazole (COR-003) and racemic ketoconazole (both from Cortendo AB) were dissolved in absolute ethanol (EtOH), according to manufacturer's instructions, and stored at −20° C. at a stock concentration of 10^−2 μM. At the start of each experiment, both drugs were freshly prepared and diluted in EtOH in the correct concentrations. Synacten (synthetic ACTH, Novartis Pharma A.G.) stock concentration was stored at 4° C. and dissolved in culture medium at the day of use. The final concentrations of ACTH were chosen based on a dose-response curve in HAC15 cells and previously reported studies in the literature. For HAC15, 200,000 and 100,000 cells were plated in 0.5 ml medium in 24 well plates for experiments of 1 and 3 days, respectively. For AtT20, cell amounts were 100,000 and 30,000. One day after seeding the HAC15 cells, the medium was refreshed and cells were treated 1 or 3 days in quadruplicate with levoketoconazole or racemic ketoconazole (0.05-5 μM), with or without 10 nM ACTH. To study effects of both compounds on pituitary AtT20 cells, concentrations of 0.1 to 10 μM of both drugs were used. Controls were vehicle treated. […] All cell culture experiments were carried out at least twice.\nas §5, §4"}, "[4]": {"tested_on": "EAS associated adrenal hyperplasia cultures", "assay": "Cortisol production in primary EAS associated adrenal hyperplasia cultures", "format": "cell-based, human", "description": "as §1, §2, §3, §4"}, "[5]": {"settings": "AtT20, after 3 and 7 days of treatment"}}, "note": "Like-named read-outs stand apart in the source and are kept apart here.", "data": [{"smiles": "CC(=O)N1CCN(c2ccc(OCC3COC(Cn4ccnc4)(c4ccc(Cl)cc4Cl)O3)cc2)CC1", "note": "(racemic) [racemic ketoconazole, Ketoconazole]", "values": [{"measurement": "IC50", "setting": "[1]; Homo sapiens, 72 h, CPA no. 2, basal condition, 3 days, read-out: IC50 inhibition of cortisol production", "result": 266, "unit": "nM"}, {"measurement": "IC50", "setting": "[1]; Homo sapiens, 72 h, CPA no. 3, basal condition, 3 days, read-out: IC50 inhibition of cortisol production", "result": 138, "unit": "nM"}, {"measurement": "effect on cell number", "setting": "[2]", "result": "not observed"}, {"measurement": "effects on ACTH secretion corrected for cell number", "setting": "[3]", "result": "No effects"}, {"measurement": "effect on cell number", "setting": "AtT20 cells; [5]", "result": "inhibited cell number"}, {"measurement": "effect on cell number", "setting": "AtT20 cells; AtT20, after 24 h of treatment", "result": "no effect"}, {"measurement": "IC50", "setting": "AtT20 cells; Mus musculus, 168 h", "result": 5.81, "unit": "µM"}, {"measurement": "IC50", "setting": "[4]; Homo sapiens, 72 h, EAS associated hyperplasia no. 1, ACTH (85 μM) stimulated condition, 3 days, read-out: IC50 inhibition of cortisol production", "result": 106, "unit": "nM"}, {"measurement": "IC50", "setting": "[4]; Homo sapiens, 72 h, EAS associated hyperplasia no. 1, basal condition, 3 days, read-out: IC50 inhibition of cortisol production", "result": 26.2, "unit": "nM"}, {"measurement": "IC50", "setting": "[4]; Homo sapiens, 72 h, EAS associated hyperplasia no. 2, basal condition, 3 days, read-out: IC50 inhibition of cortisol production", "result": 29.6, "unit": "nM"}]}, {"smiles": "CC(=O)N1CCN(c2ccc(OC[C@@H]3CO[C@@](Cn4ccnc4)(c4ccc(Cl)cc4Cl)O3)cc2)CC1", "note": "(relative stereo) [levoketoconazole, 2S,4R cis-1-acetyl-4-[4-[[2-(2,4-dichlorophenyl)-2-(1H-imidazol-1-ylmethyl)-1,3-dioxolan-4-yl]methoxyl]phenyl]piperazine]", "values": [{"measurement": "IC50", "setting": "[1]; CPA no. 1, basal condition, 3 days, read-out: IC50 inhibition of cortisol production", "result": 116, "unit": "nM"}, {"measurement": "IC50", "setting": "[1]; CPA no. 2, basal condition, 3 days, read-out: IC50 inhibition of cortisol production", "result": 125, "unit": "nM"}, {"measurement": "IC50", "setting": "[1]; CPA no. 3, basal condition, 3 days, read-out: IC50 inhibition of cortisol production", "result": 140, "unit": "nM"}, {"measurement": "IC50", "setting": "[1]; CPA no. 4, basal condition, 3 days, read-out: IC50 inhibition of cortisol production", "result": 63.1, "unit": "nM"}, {"measurement": "IC50", "setting": "[1]; basal condition, ACA (n=4), read-out: mean IC50 cortisol production", "result": 110, "unit": "nM"}, {"measurement": "effect on cell number", "setting": "[2]", "result": "significantly inhibited cell number"}, {"measurement": "effects on ACTH secretion corrected for cell number", "setting": "[3]", "result": "No effects"}, {"measurement": "effect on cell number", "setting": "AtT20 cells; [5]", "result": "inhibited cell number"}, {"measurement": "effect on cell number", "setting": "AtT20 cells; AtT20, after 24 h of treatment", "result": "no effect"}, {"measurement": "IC50", "setting": "AtT20 cells", "result": 1.05, "unit": "µM"}, {"measurement": "IC50", "setting": "[4]; EAS associated hyperplasia no. 1, ACTH (85 μM) stimulated condition, 3 days, read-out: IC50 inhibition of cortisol production", "result": 79.9, "unit": "nM"}, {"measurement": "IC50", "setting": "[4]; EAS associated hyperplasia no. 1, basal condition, 3 days, read-out: IC50 inhibition of cortisol production", "result": 27.7, "unit": "nM"}, {"measurement": "IC50", "setting": "[4]; EAS associated hyperplasia no. 2, basal condition, 3 days, read-out: IC50 inhibition of cortisol production", "result": 22, "unit": "nM"}, {"measurement": "IC50", "setting": "[4]; basal condition, EAS associated adrenal hyperplasia (n=2), read-out: mean IC50 cortisol production", "result": 25.7, "unit": "nM"}]}]}
